We go through one compound from ChEMBL document CHEMBL5154882, “Discovery of 4-Hydroxyquinazoline Derivatives as Small Molecular BET/PARP1 Inhibitors That Induce Defective Homologous Recombination and Lead to Synthetic Lethality for Triple-Negative Breast Cancer Therapy” (J Med Chem, 2022).

For assay [1], the system named is MDA-MB-231. Put plainly: Antiproliferative activity against human MDA-MB-231 cells assessed as reduction in cell viability incubated for 72 hrs by MTT assay. It counts as functional, cell-based. Particulars: MDA-MB-231, 72 h.
Assay [2] concerns MDA-MB-468. Put plainly: Induction of apoptosis in human MDA-MB-468 cells assessed as early apoptotic cells at 20 uM incubated for 72 hrs by annexin V/propidium iodide staining-based flow cytometry analysis (reference value: 4.07%). In kind it is functional.
The test system of assay [3] is MDA-MB-468. The experiment in a line: Downregulation of c-Myc expression level in human MDA-MB-468 cells by Western blot analysis. In kind it is functional, cell-based. The settings on record: dose 5-20 µM, DDE = dose-dependent effect.
Assay [4] deals with MDA-MB-468. Put plainly: Antiproliferative activity against human MDA-MB-468 cells assessed as reduction in cell viability incubated for 72 hrs by MTT assay. It counts as functional, cell-based. Particulars: MDA-MB-468, 72 h.

For `COc1cc(OC)c2c(=O)[nH]c(-c3cccc(Cc4n[nH]c(=O)c5ccccc45)c3)nc2c1`, the IC50 stood at 6.61 µM in assay [1] and 3.01 µM in assay [4]. Further, the results for the Activity in assay [2] and in assay [3] were 28.26% and “Dde”, respectively.
